Assays:
Assay in all cases: Kinase Profiling (KINOMEscan)
Type in all cases: binding
[1] = target: 456 kinases (of these 395 non-mutant kinases) (Homo sapiens, UniProt P08631); settings: HCK; 10 μM
[2] = target: 456 kinases (of these 395 non-mutant kinases) (Homo sapiens, UniProt Q8TDX7); settings: NEK7; 10 μM
[3] = target: 456 kinases (of these 395 non-mutant kinases) (Homo sapiens, UniProt P29597); settings: 10 μM
[4] = target: 456 kinases (of these 395 non-mutant kinases) (Homo sapiens, UniProt P23458); settings: 10 μM
[5] = target: 456 kinases (of these 395 non-mutant kinases) (Homo sapiens, UniProt Q07912); settings: TNK2; 10 μM
[6] = target: 456 kinases (of these 395 non-mutant kinases) (Homo sapiens, UniProt Q9UM73, C1156Y); settings: ALK(C1156Y); 10 μM
Chain of 456 kinases (of these 395 non-mutant kinases) (Homo sapiens, UniProt Q9UM73, C1156Y) (Q9UM73 19-1620 C1156Y limits assumed): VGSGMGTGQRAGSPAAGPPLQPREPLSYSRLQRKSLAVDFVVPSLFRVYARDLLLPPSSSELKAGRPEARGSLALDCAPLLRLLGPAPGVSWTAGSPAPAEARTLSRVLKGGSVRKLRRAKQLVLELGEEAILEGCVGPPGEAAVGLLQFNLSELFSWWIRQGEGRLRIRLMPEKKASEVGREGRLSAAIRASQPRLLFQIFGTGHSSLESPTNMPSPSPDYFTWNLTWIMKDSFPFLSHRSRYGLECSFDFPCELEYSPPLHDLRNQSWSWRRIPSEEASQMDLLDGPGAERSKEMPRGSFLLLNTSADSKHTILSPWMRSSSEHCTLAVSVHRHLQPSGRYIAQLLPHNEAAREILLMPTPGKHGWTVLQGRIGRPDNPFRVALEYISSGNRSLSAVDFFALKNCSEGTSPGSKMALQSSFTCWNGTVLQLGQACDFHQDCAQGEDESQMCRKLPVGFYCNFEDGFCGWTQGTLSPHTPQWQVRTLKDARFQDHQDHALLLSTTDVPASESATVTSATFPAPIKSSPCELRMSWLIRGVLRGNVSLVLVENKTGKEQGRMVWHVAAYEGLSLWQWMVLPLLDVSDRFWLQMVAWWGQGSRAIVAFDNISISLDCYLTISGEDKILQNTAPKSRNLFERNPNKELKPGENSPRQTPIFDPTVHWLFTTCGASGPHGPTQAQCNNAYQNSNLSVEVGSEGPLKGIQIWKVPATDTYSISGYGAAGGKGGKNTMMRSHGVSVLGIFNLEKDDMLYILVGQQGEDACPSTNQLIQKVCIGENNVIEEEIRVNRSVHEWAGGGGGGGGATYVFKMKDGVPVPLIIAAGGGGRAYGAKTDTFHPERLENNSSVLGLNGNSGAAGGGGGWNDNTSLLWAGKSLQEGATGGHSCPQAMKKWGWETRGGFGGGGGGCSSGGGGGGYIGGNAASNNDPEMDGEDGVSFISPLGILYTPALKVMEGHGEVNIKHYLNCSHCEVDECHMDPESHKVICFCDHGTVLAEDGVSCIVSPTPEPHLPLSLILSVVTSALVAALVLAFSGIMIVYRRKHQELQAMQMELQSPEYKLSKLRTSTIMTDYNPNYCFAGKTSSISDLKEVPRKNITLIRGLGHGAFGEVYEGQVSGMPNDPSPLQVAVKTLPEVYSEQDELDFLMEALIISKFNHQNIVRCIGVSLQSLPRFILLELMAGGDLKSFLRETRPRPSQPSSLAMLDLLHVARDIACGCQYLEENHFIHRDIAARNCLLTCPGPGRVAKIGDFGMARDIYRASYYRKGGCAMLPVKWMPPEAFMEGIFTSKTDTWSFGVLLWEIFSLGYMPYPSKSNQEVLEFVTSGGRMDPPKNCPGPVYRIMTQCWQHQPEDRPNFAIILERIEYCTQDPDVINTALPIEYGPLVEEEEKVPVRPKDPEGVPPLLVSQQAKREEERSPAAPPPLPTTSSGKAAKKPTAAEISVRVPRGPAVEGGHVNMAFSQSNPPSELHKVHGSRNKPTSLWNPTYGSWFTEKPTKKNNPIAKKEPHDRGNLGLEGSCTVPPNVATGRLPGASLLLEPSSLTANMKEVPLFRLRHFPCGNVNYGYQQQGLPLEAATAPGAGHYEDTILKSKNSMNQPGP

[7] = target: 456 kinases (of these 395 non-mutant kinases) (Homo sapiens, UniProt P00533, G719S); settings: EGFR(G719S); 10 μM
[8] = target: 456 kinases (of these 395 non-mutant kinases) (Homo sapiens, UniProt P00519, H396P); settings: 10 μM
[9] = target: 456 kinases (of these 395 non-mutant kinases) (Homo sapiens, UniProt P08069); settings: IGF1R; 10 μM
[10] = target: 456 kinases (of these 395 non-mutant kinases) (Homo sapiens, UniProt P50750); settings: CDK9; 10 μM
[11] = target: 456 kinases (of these 395 non-mutant kinases) (Homo sapiens, UniProt Q9Y243); settings: AKT3; 10 μM
Chain of 456 kinases (of these 395 non-mutant kinases) (Homo sapiens, UniProt Q9Y243) (Q9Y243 2-479 limits assumed, change not shown): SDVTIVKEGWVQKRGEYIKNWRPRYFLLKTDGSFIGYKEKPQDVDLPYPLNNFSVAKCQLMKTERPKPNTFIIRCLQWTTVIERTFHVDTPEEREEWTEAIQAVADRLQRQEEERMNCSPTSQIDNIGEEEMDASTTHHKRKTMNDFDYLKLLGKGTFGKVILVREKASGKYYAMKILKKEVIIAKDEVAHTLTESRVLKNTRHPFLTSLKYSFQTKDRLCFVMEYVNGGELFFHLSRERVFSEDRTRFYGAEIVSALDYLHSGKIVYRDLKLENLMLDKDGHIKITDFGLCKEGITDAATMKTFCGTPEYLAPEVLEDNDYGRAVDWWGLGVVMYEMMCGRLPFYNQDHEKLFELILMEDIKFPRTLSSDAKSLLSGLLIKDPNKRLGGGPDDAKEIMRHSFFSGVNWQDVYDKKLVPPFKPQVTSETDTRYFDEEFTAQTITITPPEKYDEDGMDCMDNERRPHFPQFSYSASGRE

[12] = target: 456 kinases (of these 395 non-mutant kinases) (Homo sapiens, UniProt P24941); settings: CDK2; 10 μM
[13] = target: 456 kinases (of these 395 non-mutant kinases) (Homo sapiens, UniProt Q86V86); settings: PIM3; 10 μM
[14] = target: 456 kinases (of these 395 non-mutant kinases) (Homo sapiens, UniProt P49840); settings: GSK3A; 10 μM
Chain of 456 kinases (of these 395 non-mutant kinases) (Homo sapiens, UniProt P49840) (P49840 2-483 limits assumed, change not shown): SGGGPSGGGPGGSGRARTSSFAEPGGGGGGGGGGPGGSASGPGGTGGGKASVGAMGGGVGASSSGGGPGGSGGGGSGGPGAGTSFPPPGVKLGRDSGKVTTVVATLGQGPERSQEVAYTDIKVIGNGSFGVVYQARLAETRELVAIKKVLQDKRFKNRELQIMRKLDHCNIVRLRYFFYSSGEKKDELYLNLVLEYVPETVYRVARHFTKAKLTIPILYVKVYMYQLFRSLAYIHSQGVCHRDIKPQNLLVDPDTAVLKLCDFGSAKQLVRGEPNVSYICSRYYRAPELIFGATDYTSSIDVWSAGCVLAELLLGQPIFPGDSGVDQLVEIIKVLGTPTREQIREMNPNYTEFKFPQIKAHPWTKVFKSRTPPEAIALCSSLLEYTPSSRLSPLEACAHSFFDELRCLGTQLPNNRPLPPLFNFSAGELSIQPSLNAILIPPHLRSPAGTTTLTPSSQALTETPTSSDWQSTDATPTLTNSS

[15] = target: 456 kinases (of these 395 non-mutant kinases) (Homo sapiens, UniProt P07333); settings: 10 μM
Chain of 456 kinases (of these 395 non-mutant kinases) (Homo sapiens, UniProt P07333) (P07333 20-972 limits assumed, stated change not applied): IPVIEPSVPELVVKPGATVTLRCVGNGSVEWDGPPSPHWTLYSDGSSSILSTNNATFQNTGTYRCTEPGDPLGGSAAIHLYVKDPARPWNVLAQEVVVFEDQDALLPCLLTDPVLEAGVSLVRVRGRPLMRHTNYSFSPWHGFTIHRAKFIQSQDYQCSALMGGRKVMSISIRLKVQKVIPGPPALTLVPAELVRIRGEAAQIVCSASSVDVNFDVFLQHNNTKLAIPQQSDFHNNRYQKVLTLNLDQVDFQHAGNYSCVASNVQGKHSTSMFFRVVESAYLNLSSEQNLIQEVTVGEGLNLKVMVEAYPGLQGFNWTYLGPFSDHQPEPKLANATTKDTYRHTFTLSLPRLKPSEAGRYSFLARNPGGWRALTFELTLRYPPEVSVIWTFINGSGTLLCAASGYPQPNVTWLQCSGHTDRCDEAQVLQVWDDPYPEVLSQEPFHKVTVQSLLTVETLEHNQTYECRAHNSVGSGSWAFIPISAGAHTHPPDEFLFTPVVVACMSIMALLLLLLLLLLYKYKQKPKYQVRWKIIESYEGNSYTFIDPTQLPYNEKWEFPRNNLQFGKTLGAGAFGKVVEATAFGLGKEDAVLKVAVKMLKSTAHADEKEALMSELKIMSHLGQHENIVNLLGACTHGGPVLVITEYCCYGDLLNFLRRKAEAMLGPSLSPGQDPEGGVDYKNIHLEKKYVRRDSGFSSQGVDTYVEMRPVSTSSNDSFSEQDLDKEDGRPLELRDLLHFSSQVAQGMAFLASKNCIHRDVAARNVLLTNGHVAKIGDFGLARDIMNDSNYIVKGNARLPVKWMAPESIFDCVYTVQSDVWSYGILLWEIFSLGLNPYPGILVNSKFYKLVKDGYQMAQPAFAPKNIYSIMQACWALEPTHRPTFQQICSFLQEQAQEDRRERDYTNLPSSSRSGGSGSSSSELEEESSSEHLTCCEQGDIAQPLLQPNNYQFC

[16] = target: 456 kinases (of these 395 non-mutant kinases) (Homo sapiens, UniProt P42336, E545A); settings: PIK3CA(E545A); 10 μM
[17] = target: 456 kinases (of these 395 non-mutant kinases) (Homo sapiens, UniProt Q9H2G2); settings: SLK; 10 μM
[18] = target: 456 kinases (of these 395 non-mutant kinases) (Homo sapiens, UniProt Q9UM73); settings: ALK; 10 μM
Chain of 456 kinases (of these 395 non-mutant kinases) (Homo sapiens, UniProt Q9UM73) (Q9UM73 19-1620 limits assumed, change not shown): as the sequence (Q9UM73 19-1620 C1156Y limits assumed) above, with Y1138C counted along it

[19] = target: 456 kinases (of these 395 non-mutant kinases) (Homo sapiens, UniProt P57058); settings: HUNK; 10 μM
[20] = target: 456 kinases (of these 395 non-mutant kinases) (Homo sapiens, UniProt Q9NYY3); settings: PLK2; 10 μM
[21] = target: 456 kinases (of these 395 non-mutant kinases) (Homo sapiens, UniProt Q02779); settings: MLK2; 10 μM
[22] = target: 456 kinases (of these 395 non-mutant kinases) (Homo sapiens, UniProt Q9HBY8); settings: SGK2; 10 μM
[23] = target: 456 kinases (of these 395 non-mutant kinases) (Homo sapiens, UniProt Q9H0K1); settings: SIK2; 10 μM
[24] = target: 456 kinases (of these 395 non-mutant kinases) (Homo sapiens, UniProt P54764); settings: EPHA4; 10 μM
[25] = target: 456 kinases (of these 395 non-mutant kinases) (Homo sapiens, UniProt Q9H1R3); settings: MYLK2; 10 μM
Chain of 456 kinases (of these 395 non-mutant kinases) (Homo sapiens, UniProt Q9H1R3) (Q9H1R3 2-596 limits assumed, change not shown): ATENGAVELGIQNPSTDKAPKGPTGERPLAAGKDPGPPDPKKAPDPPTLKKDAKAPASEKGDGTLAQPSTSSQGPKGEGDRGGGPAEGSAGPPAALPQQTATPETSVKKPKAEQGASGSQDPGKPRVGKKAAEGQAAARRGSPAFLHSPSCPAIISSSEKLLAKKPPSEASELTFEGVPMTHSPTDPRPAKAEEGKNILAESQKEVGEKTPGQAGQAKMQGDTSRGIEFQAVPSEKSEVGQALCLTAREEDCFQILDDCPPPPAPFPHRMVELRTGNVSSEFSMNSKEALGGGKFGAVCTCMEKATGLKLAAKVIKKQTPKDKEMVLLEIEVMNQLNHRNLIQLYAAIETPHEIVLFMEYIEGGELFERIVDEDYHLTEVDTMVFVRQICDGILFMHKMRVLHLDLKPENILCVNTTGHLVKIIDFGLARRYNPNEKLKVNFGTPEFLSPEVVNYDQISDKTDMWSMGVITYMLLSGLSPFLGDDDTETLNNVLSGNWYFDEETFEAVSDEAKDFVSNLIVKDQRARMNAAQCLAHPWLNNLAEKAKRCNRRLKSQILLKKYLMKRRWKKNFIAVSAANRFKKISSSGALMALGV

[26] = target: 456 kinases (of these 395 non-mutant kinases) (Homo sapiens, UniProt Q15349); settings: 10 μM
[27] = target: 456 kinases (of these 395 non-mutant kinases) (Homo sapiens, UniProt P49336); settings: CDK8; 10 μM
[28] = target: 456 kinases (of these 395 non-mutant kinases) (Homo sapiens, UniProt Q00532); settings: CDKL1; 10 μM
[29] = target: 456 kinases (of these 395 non-mutant kinases) (Homo sapiens, UniProt P07332); settings: FES; 10 μM
[30] = target: 456 kinases (of these 395 non-mutant kinases) (Homo sapiens, UniProt P15056, V600E); settings: BRAF(V600E); 10 μM
[31] = target: 456 kinases (of these 395 non-mutant kinases) (Homo sapiens, UniProt P54646); settings: AMPK-alpha2; 10 μM

Chain of 456 kinases (of these 395 non-mutant kinases) (Homo sapiens, UniProt P08631) (P08631 2-526 limits assumed, change not shown): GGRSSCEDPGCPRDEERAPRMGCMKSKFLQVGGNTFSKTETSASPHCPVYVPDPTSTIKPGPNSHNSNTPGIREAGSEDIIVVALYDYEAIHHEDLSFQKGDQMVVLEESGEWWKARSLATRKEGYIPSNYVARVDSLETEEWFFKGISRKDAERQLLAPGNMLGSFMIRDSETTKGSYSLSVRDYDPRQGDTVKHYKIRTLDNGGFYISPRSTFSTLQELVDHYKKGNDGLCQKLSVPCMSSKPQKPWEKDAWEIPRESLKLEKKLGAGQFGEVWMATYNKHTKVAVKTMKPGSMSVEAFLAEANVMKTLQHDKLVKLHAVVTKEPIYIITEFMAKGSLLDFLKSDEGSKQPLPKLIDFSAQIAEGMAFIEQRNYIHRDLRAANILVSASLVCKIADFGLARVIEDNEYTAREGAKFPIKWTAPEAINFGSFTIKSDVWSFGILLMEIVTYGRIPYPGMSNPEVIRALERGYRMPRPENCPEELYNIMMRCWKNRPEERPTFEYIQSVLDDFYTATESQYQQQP

Which results are given for `CCc1ccccc1NC(=O)c1c(C)nsc1Nc1cnc2cc(F)ccc2n1` [Example 20, N-(2-Ethylphenyl)-5-[(6-fluoroquinoxalin-2-yl)amino]-3-methyl-1,2-thiazole-4-carboxamide]?
% Ctrl @ 10 μM [1]: 59 % Ctrl; % Ctrl @ 10 μM [2]: 79 % Ctrl; % Ctrl @ 10 μM ([3]; TYK2(JH1domain-catalytic)): 100 % Ctrl; % Ctrl @ 10 μM ([3]; TYK2(JH2domain-pseudokinase)): 100 % Ctrl; % Ctrl @ 10 μM ([4]; JAK1(JH1domain-catalytic)): 100 % Ctrl; % Ctrl @ 10 μM ([4]; JAK1(JH2domain-pseudokinase)): 71 % Ctrl; % Ctrl @ 10 μM [5]: 93 % Ctrl; % Ctrl @ 10 μM [6]: 100 % Ctrl; % Ctrl @ 10 μM [7]: 97 % Ctrl; % Ctrl @ 10 μM ([8]; ABL1(H396P)-nonphosphorylated): 100 % Ctrl; % Ctrl @ 10 μM ([8]; ABL1(H396P)-phosphorylated): 92 % Ctrl; % Ctrl @ 10 μM [9]: 100 % Ctrl; % Ctrl @ 10 μM [10]: 100 % Ctrl; % Ctrl @ 10 μM [11]: 100 % Ctrl; % Ctrl @ 10 μM [12]: 100 % Ctrl; % Ctrl @ 10 μM [13]: 100 % Ctrl; % Ctrl @ 10 μM [14]: 68 % Ctrl; % Ctrl @ 10 μM ([15]; CSF1R-autoinhibited): 91 % Ctrl; % Ctrl @ 10 μM ([15]; CSF1R): 100 % Ctrl; % Ctrl @ 10 μM [16]: 95 % Ctrl; % Ctrl @ 10 μM [17]: 95 % Ctrl; % Ctrl @ 10 μM [18]: 77 % Ctrl; % Ctrl @ 10 μM [19]: 93 % Ctrl; % Ctrl @ 10 μM [20]: 90 % Ctrl; % Ctrl @ 10 μM [21]: 78 % Ctrl; % Ctrl @ 10 μM [22]: 100 % Ctrl; % Ctrl @ 10 μM [23]: 84 % Ctrl; % Ctrl @ 10 μM [24]: 100 % Ctrl; % Ctrl @ 10 μM [25]: 100 % Ctrl; % Ctrl @ 10 μM ([26]; RSK3(Kin.Dom.1-N-terminal)): 72 % Ctrl; % Ctrl @ 10 μM ([26]; RSK3(Kin.Dom.2-C-terminal)): 79 % Ctrl; % Ctrl @ 10 μM [27]: 100 % Ctrl; % Ctrl @ 10 μM [28]: 100 % Ctrl; % Ctrl @ 10 μM [29]: 94 % Ctrl; % Ctrl @ 10 μM [30]: 100 % Ctrl; % Ctrl @ 10 μM [31]: 100 % Ctrl

Reference: patent US9682995B2, “Amino-substituted isothiazoles” (BAYER PHARMA AKTIENGESELLSCHAFT, priority 2013, dated 2017)
